Consider 6 molecules from paper PMC11650737, “Developing MYC Degraders Bearing the Von Hippel–Lindau Ligand to Target the “Undruggable” MYC” (ACS Pharmacology & Translational Science, 2024).

One data set concerns A549 cells. Kind of data set: Cell viability (MTT) assay, A549. Type of data set: cell-based, human. As to conditions: 72 h. As to the method: (§1) The antiproliferative activity of the synthesized compounds was tested in cell viability assays optimally set up for various cancer cell lines (results are depicted in Table 2, n = 3, average IC50 (μM) ± SD).
Cells were plated at a density of 5 × 10^3 cells per well on 96-well plates. After 24 h of incubation (37 °C, 5% CO2), the cell medium was removed, and compounds were added at selected concentrations (0.1–100 μM), followed by incubation for 72 h. Control cells were treated with 0.4% DMSO medium to match the conditions in the wells where drugs were added. After 72 h, the medium was removed, and the 3-(4,5-dimethylthiazol-2-yl)-2,5-diphenyltetrazolium bromide (MTT) solution (0.3 mg/mL in PBS) was added to cells for 3 h under no light conditions. The MTT solution was removed, and the formazan crystals were dissolved in 100 μL of DMSO. The optical density was measured at 570 nm with a reference wavelength of 690 nm using an absorbance microplate reader (SpectraMax 190, Molecular Devices, Sunnyvale, CA, USA). The half-maximal inhibitory concentration (IC50) was calculated based on a four-parameter logistic equation, generating a cell viability curve, using GraphPad Prism 6.01 (GraphPad Software, Inc.). […] The resulting absorbance values were used instead of IC50 calculation. […]

For the next data set, the target named is T1, c-MYC (Homo sapiens, UniProt P01106).
T1 construct: endogenous in cells; host or cells: PC3
T1 sequence (P01106 whole entry): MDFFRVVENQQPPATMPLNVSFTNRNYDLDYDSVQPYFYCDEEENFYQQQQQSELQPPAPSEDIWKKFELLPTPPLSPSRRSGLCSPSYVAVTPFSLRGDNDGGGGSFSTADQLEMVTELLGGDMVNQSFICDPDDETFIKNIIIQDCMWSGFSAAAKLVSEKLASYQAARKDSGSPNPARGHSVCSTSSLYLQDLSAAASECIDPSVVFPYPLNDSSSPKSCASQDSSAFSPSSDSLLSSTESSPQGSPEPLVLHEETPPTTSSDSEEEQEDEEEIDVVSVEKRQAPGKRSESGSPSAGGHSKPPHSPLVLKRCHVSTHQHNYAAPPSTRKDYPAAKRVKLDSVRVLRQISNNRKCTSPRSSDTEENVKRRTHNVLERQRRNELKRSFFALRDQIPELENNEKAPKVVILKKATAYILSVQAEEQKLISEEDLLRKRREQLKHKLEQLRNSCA
Kind of data set: MYC degradation in PC3 cells, Western blot. The class given is cell-based. The conditions noted are these: for MYC degradation (MYC levels by Western blot): 10 μΜ, 24 h. As to the method:
The ability of novel compounds to induce MYC degradation in the PC3 cell line was evaluated via a Western blot-based assay. […] A PROTAC that effectively degrades bromodomain and extra-terminal (BET) family proteins, with indirect action on MYC levels, BETd-260, was also included in these experiments as a positive control. BETd-260 was tested at a lower concentration (1 μΜ) due to its high potency.[26]
PC3 cells were used for the determination of MYC levels after treatment with the PROTACs under study. Cells (at a density of 250 000 per well) were seeded in 6-well plates for 24 h until 60% confluence. During the 24-h incubation period, cells were treated with the tested compounds (10 μΜ) and BETd-260 (1 μΜ) that was used as a positive control. For rescue experiments, cells were pretreated with the inhibitor MG-132 for 2 h, and then, the medium was removed, followed by the addition of the selected compound. After the 24-h incubation period, a cell lysis protocol was performed. The medium was removed, and the cells were rinsed with cold PBS. Lysis was induced using RIPA lysis buffer (50 mM Tris-HCl at pH 7.5, 150 mM NaCl, 5 mM Na2EDTA, 1 mM EGTA, 0.1% SDS, 1% NP-40, 0.5% sodium deoxycholate, 8 mM sodium fluoride, and 1 mM sodium orthovanadate) and protease inhibitor cocktail (Roche, UK). Total protein concentration in lysate samples was determined via performance of the Bradford assay in bovine serum albumin (BSA). Standard and unknown samples were preformulated in Coomassie blue G-250 assay reagent (Thermo Fisher Scientific, MA, USA), followed by a readout at 595 nm. Separation of the protein isolated from PC3 lysates, respectively (10 μg), with NuPAGE sample reducing agent and NuPAGE LDS sample buffer (Invitrogen, UK), was achieved via SDS-PAGE electrophoresis at 110 V for 2 h, prior to overnight transfer to the polyvinylidene difluoride (PVDF) membrane. The membranes were then blocked in 5% nonfat dry milk in Tris-buffered saline with 0.1% Tween-20 (TBST-T) for 1 h at room temperature.
Detection of MYC in PC3 cells was accomplished via immunoblot of the POI with the indicated monoclonal antibody (Cell Signaling Technology, MA, USA, catalog number #5605) at 1:1000 in TBST at […] overnight. The secondary anti-rabbit peroxidase-conjugate antibody (Cell Signaling Technology, MA, USA, catalog number #7074) was further added at 1:2000 dilution, followed by 1-h incubation at room temperature. Chemiluminescent visualization of the MYC protein bands was performed after the addition of Immobilon Crescendo Western HRP substrate (Sigma-Aldrich, Munich, Germany). For normalization of MYC concentration, GAPDH was labeled using the specific rabbit monoclonal antibody (Cell Signaling Technology, MA, USA, catalog number #5174) at 1:20000 in 5% nonfat dry milk. Protein bands were quantified with the ImageJ software.
In general terms: A western blot detects proteins with antibodies after separation by electrophoresis.

Data set [1] relates to SKBR3 cells. Kind of data set: Cell uptake / intracellular concentration by LC-MS/MS, SKBR3. Type of data set: in vitro ADME, human. The conditions noted are these: SKBR3, 24 h incubation with 10 μM. How it is done: (§2) Therefore, in order to better comprehend the observed activities of our degraders, following incubation of each compound with cells, the intracellular concentrations of the synthesized derivatives were evaluated in different cancer cell lines, as described previously.[28],[29] SKBR3, PC3, or A549 cells were incubated with PROTACs (at a 10 μΜ concentration) for selected time points, respectively. Upon sample treatment, compounds were extracted and analyzed by LC-MS/MS. Table 1 presents the percentage of the molecule that enters the cells after 24 h incubation at the 10 μM concentration. […] The small molecule MYCi361, used as a binding domain component of MYC, was also evaluated in the cell uptake assay (Table 1).
(§3) Cells were plated in 24-well plates at a density of 2 × 10^5 cells/well. 24 h after seeding, cells were incubated with each PROTAC (10 μΜ) for certain time points (1 h, 4 h, 8 h, and 24 h). The incubations were terminated at the selected time points by removing the medium and washing the cells twice with 1 mL cold PBS (1×) in each well in order to remove unbound PROTAC. Subsequently, the cells were lysed by adding a cold solution of ACN:H2O (3:2) and scraping off the cell monolayer. This process was done in two steps: first, 200 μL of ACN:H2O was added, the cells were scraped, and the cell lysate was collected. The second step involved the addition of an extra 100 μL of ACN:H2O, scraping, and collection of the remaining lysate. Samples were subsequently vortexed, sonicated, and centrifuged for 10 min at 13 000 rpm. The supernatants were collected, evaporated for 1 h at 55 °C, and stored at −20 °C until the day of analysis. Samples were then reconstituted in 200 μL of initial mobile phase (100% A), and the intracellular accumulation of PROTACs was determined by LC-MS/MS analysis using Warfarin as a stable internal standard and PROTAC standards for the construction of analytical standard curves.
(§4) The percentage of cell uptake was calculated as follows: [drawing 1]

In data set [2] the test system is PC3 cells. Kind of data set: Cell viability (MTT) assay, PC3. The class given is cell-based, human. The conditions noted are these: for IC50: read-out: IC50 (antiproliferative effect). How it is done: as §1
(§5) Cells were plated at a density of 5 × 10^3 cells per well on 96-well plates. After 24 h of incubation (37 °C, 5% CO2), the cell medium was removed, and compounds were added at selected concentrations (0.1–100 μM), followed by incubation for 72 h. Control cells were treated with 0.4% DMSO medium to match the conditions in the wells where drugs were added. After 72 h, the medium was removed, and the 3-(4,5-dimethylthiazol-2-yl)-2,5-diphenyltetrazolium bromide (MTT) solution (0.3 mg/mL in PBS) was added to cells for 3 h under no light conditions. The MTT solution was removed, and the formazan crystals were dissolved in 100 μL of DMSO. The optical density was measured at 570 nm with a reference wavelength of 690 nm using an absorbance microplate reader (SpectraMax 190, Molecular Devices, Sunnyvale, CA, USA). The half-maximal inhibitory concentration (IC50) was calculated based on a four-parameter logistic equation, generating a cell viability curve, using GraphPad Prism 6.01 (GraphPad Software, Inc.). Two concentrations of an established drug, Docetaxel (100 nM and 1 nM), were used in each experiment as a positive control. The resulting absorbance values were used instead of IC50 calculation. Each point was the result of three independent experiments performed in triplicate.

For another data set, the system named is MYC:MAX complex. Kind of data set: In vitro MYC-MAX binding assay (GST pull-down). The class given is biochemical. The conditions noted are these: compound 150 μM. As to the method:
To assess whether the new degraders affect direct interaction of MYC with MAX, we employed a pull-down approach using recombinant proteins that correspond to the bHLHZ regions of MYC and MAX. GST-MYC, bound to glutathione sepharose beads, was incubated with the pyrazole compounds, followed by incubation with His-MAX. Finally, the complex of GST-MYC/HisMAX was eluted by the addition of excess glutathione, while the amount of the eluted complex was assessed by western blotting using anti-MAX antibodies (Figure 5).
Figure 5 Inhibition of the formation of the MYC:MAX complex by the pyrazole compounds. The indicated compounds (150 μM), or the solvent alone (DMSO, used as a control), were incubated with GST-MYC containing glutathione beads for 10 min at […], followed by incubation with His-MAX. […] The complex of GST-MYC:His-MAX was eluted by incubation of the beads with free glutathione. The amount of the eluted complex was analyzed by western blotting (presented in the inset), using anti-MAX antibodies, while the protein bands were quantified with the ImageJ software. The intensity of the bands is presented in the bar graph. […] Statistics were based on the unpaired two-tailed student’s t-test. Data are shown as mean ± SEM.
MYC–MAX complex formation assays were performed using recombinantly produced GST-MYC and His-MAX proteins, following the glutathione GST pull-down principle (Lentzaris et al., in preparation). In this assay, recombinant GST-MYC bound to glutathione beads was preincubated with the indicated compound or vehicle […]. As a negative control, empty beads, i.e., not loaded with GST-MYC, were used. The formed complex was eluted with glutathione, while the amount of bound MAX (indicating the amount of the generated complex) was assessed by Western blotting using anti-MAX antibodies (Abcam) and quantified based on the image J free software. All assays were carried out at least three independent times.

For data set [3], the system named is SKBR3 cells. Kind of data set: Cell viability (MTT) assay, SKBR3. The class given is cell-based, human. How it is done: as §1, §5
The subject of another data set is HCT116 cells. On the set-up: method as in PMID 34838332. The conditions noted are these: HCT116 cells ref 13; read-out: GI50 (viability); cited from earlier work.
A further data set relates to PSN1 cells. Also noted: method as in PMID 34838332. The conditions noted are these: PSN1 cells ref 13; read-out: GI50 (viability); cited from earlier work.
In data set [4] the test system is PC3 cells. Kind of data set: Cell uptake / intracellular concentration by LC-MS/MS, PC3. Type of data set: in vitro ADME, human. The conditions noted are these: PC3, 24 h incubation with 10 μM. As to the method:
as §2, §3, §4

Each structure is given as a SMILES string. Several values for one entry are separate records, joined by “and”; a condition that tells them apart may be missing. Equal entries are not always repeated. Entries after “also recorded” stand apart in the source; their conditions may differ. Where two headings read alike, the source gives them in different places.

Take `Cc1ncsc1-c1ccc(CNC(=O)[C@@H]2C[C@@H](O)CN2C(=O)[C@@H](NC(=O)CNC(=O)CCC(=O)NCCCOc2ccc(-c3cc(C(F)(F)F)nn3C)c(O)c2-c2cc(C(F)(F)F)cc(C(F)(F)F)c2)C(C)(C)C)cc1` [CSI95]: the “IC50 (antiproliferative effect)” value in the data set on A549 cells and in the data set with PC3 cells [2] (72 h) was “inactive” each time. Also, the “MYC degradation (MYC levels by Western blot)” value at c-MYC is “No particular effect”. Further, the Uptake by cells with SKBR3 cells [1] is listed as 16 ± 5%.
As to `Cn1nc(C(F)(F)F)cc1-c1ccc(OCCCN)c(-c2cc(C(F)(F)F)cc(C(F)(F)F)c2)c1O.O=C(O)C(F)(F)F` [CSI118], the “inhibition of MYC:MAX complex formation (binding of His-MAX to GST-MYC)” value with MYC:MAX complex is “did not seem to interfere significantly; also recorded: no effect on MYC/MAX dimerization”.
For the molecule `Cc1ncsc1-c1ccc(CNC(=O)[C@@H]2C[C@H](O)CN2C(=O)[C@@H](NC(=O)CCCC(=O)NCCCOc2ccc(-c3cc(C(F)(F)F)nn3C)c(O)c2-c2cc(C(F)(F)F)cc(C(F)(F)F)c2)C(C)(C)C)cc1` [CSI212], on c-MYC, the “MYC degradation (MYC levels by Western blot)” value was “inactive”. Also, the “IC50 (antiproliferative effect)” value in the data set with PC3 cells [2] (72 h) and in the data set with SKBR3 cells [3] (72 h) was “did not have any antiproliferative effect; also recorded: inactive” in each case.
One may read the IC50 as the concentration at which inhibition is half-maximal. As to `CCc1ccc(/C=C2/SC(=S)NC2=O)cc1` [Compound 10058-F4, reference compound], the IC50 in the data set on PC3 cells [2] (72 h) is 23 µM and 25 µM.
As usually defined, the GI50 is the concentration giving 50% growth inhibition. As to `CC(C)c1ccc(/C=C2\SC(=O)N(CCCCCCCCNC(=O)c3ccc4c(c3)C(=O)N(C3CCC(=O)NC3=O)C4=O)C2=O)cc1` (stereo not shown) [MDEG-541], the GI50 in the data set with HCT116 cells was 14.3 µM; in the data set with PSN1 cells, 10.7 µM.
Turning to `Cn1nc(C(F)(F)F)cc1-c1ccc(OCc2ccc(Cl)cc2)c(-c2cc(C(F)(F)F)cc(C(F)(F)F)c2)c1O` [MYCi361, reference compound], the Uptake by cells in the data set on PC3 cells [4] was 28% and 28 ± 5%; in the data set with SKBR3 cells [1], 19% and 19 ± 1%. Moreover, the “concentration range in which MYC was degraded” value at c-MYC was 5–10 μΜ. The IC50 in the data set on PC3 cells [2] (Homo sapiens, PC-3, 72 h) worked out at 8 ± 1 µM; with SKBR3 cells [3] (Homo sapiens, SK-BR-3, 72 h, read-out: IC50 (antiproliferative effect)), 11 ± 4 µM.
